According to the supplement of paper PMC11208160:

assay: recombinant UMI read abundance after kanamycin selection (control-corrected) (log10(CPM+1)); higher = more efficient recombination; extreme values may be limits of the assay; sequences stand for … in AGTGCAGAGAAAATCGGCCAGTTTTCTCTGCCTGCAGTCCGCATGCCGTGGGACCCCTTGGGTTCTAACCTGTTGCCTAGATTTATGCAGCGGACTGCCTTTCTCCCAAAGTGATAAACCGG…AGGTTGGTTTCACT; site = the 11-nt donor
In short: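 After plating on IPTG (0.07 mM) plus kanamycin, or unselected, in two replicates, recombinant UMIs were PCR-amplified across the donor–target junction and sequenced. The cells were Escherichia coli co-electroporated with a UMI-tagged donor and donor-binding-loop pair library and a target plasmid with a fixed target and T7-inducible IS621 bridge recombinase. Values are log10(CPM+1), with CPM averaged over replicates and scaled by control-derived factors.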
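Also: IS621 bridge recombinase in Escherichia coli cells against a fixed T5 target plasmid.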

| Sequence | recombinant UMI read abundance (log10) |
| --- | --- |
| CGATCGACATGGACCGGTTTTCCCGGTAATCCGTATTTGTC (site CGATCGACTCA) | 0 |
| CGATCGACATGGACCGGTTTTCCCGGTAATCCGTATTTGTC (site CGATCGACTGA) | 1.08 |
| CGATCGACATGGACCGGTTTTCCCGGTAATCCGTATTTGTC (site CGATCGACTTA) | 0 |
| CGATCGGCATGGACCGGTTTTCCCGGTAATCCGTATTTGAA (site CGATCGGCTTT) | 1.25 |
| CGATCGTCATGGACCGGTTTTCCCGGTAATCCGTATTTGTT (site CGATCGACTAA) | 0.00634 |
| CGATCGTCATGGACCGGTTTTCCCGGTAATCCGTATTTGTT (site CGATCGCCTAA) | 0.0131 |
| CGATCGTCATGGACCGGTTTTCCCGGTAATCCGTATTTGTT (site CGATCGGCTAA) | 0.0205 |
| CGATCGTCATGGACCGGTTTTCCCGGTAATCCGTATTTGTT (site CGATCGTCTAA) | 1.25 |
| CGATCTCCATGGACCGGTTTTCCCGGTAATCCGTATTTGCT (site CGATCTCCTAG) | 0 |
| CGATCTTCATGGACCGGTTTTCCCGGTAATCCGTATTTGTT (site CGATCATCTAG) | 0 |
| CGATCTTCATGGACCGGTTTTCCCGGTAATCCGTATTTGTT (site CGATCTTCTAA) | 0.751 |
| CGATGATCATGGACCGGTTTTCCCGGTAATCCGTATTTGCT (site CGATAATCTAG) | 2.33 |
| CGATGATCATGGACCGGTTTTCCCGGTAATCCGTATTTGCT (site CGATCATCTAG) | 0.00821 |
| CGATGATCATGGACCGGTTTTCCCGGTAATCCGTATTTGCT (site CGATGATCTAG) | 2.46 |
| CGATGATCATGGACCGGTTTTCCCGGTAATCCGTATTTGCT (site CGATTATCTAG) | 0.958 |
| CGATGGACATGGACCGGTTTTCCCGGTAATCCGTATTTGTT (site CGATAGACTAA) | 1.25 |
| CGATGGACATGGACCGGTTTTCCCGGTAATCCGTATTTGTT (site CGATCGACTAA) | 0.00844 |
| CGATGGACATGGACCGGTTTTCCCGGTAATCCGTATTTGTT (site CGATGGACTAA) | 1.97 |
| CGATGGACATGGACCGGTTTTCCCGGTAATCCGTATTTGTT (site CGATTGACTAA) | 0.00606 |

| Sequence | recombinant UMI read abundance (log10) |
| --- | --- |
| CGATGGTCATGGACCGGTTTTCCCGGTAATCCGTATTTGCT (site CGATCATCTAG) | 0 |
| CGATGGTCATGGACCGGTTTTCCCGGTAATCCGTATTTGCT (site CGATGGTCTAG) | 2.8 |
| CGATTGGCATGGACCGGTTTTCCCGGTAATCCGTATTTGCA (site CGATTGGCTTG) | 2.02 |
| CGCAATCCATGGACCGGTTTTCCCGGTAATCCGTATTTGTG (site CGCAATCCTCA) | 0.631 |
| CGCAATCCATGGACCGGTTTTCCCGGTAATCCGTATTTGTG (site CGGAATCCTAA) | 0 |
| CGCAATGCATGGACCGGTTTTCCCGGTAATCCGTATTTGTT (site CGCAATGCTAA) | 2.14 |
| CGCAATGCATGGACCGGTTTTCCCGGTAATCCGTATTTGTT (site CGGAATCCTAA) | 0 |
| CGCAGCACATGGACCGGTTTTCCCGGTAATCCGTATTTGAC (site CGCAGCACTGT) | 2.95 |
| CGCAGGCCATGGACCGGTTTTCCCGGTAATCCGTATTTGGG (site CGCAGGCCTCC) | 0 |
| CGCAGTACATGGACCGGTTTTCCCGGTAATCCGTATTTGCG (site CGCAGTACTCG) | 0.962 |
| CGCATACCATGGACCGGTTTTCCCGGTAATCCGTATTTGAC (site CGCATACCTGT) | 0 |
| CGCATAGCATGGACCGGTTTTCCCGGTAATCCGTATTTGTA (site CGCATAGCTTA) | 2.51 |
| CGCATTACATGGACCGGTTTTCCCGGTAATCCGTATTTGGC (site CGCATTACTGC) | 1.28 |
| CGCCCGGCATGGACCGGTTTTCCCGGTAATCCGTATTTGGT (site CGCCCGGCTAC) | 1.31 |
| CGCCCTCCATGGACCGGTTTTCCCGGTAATCCGTATTTGTT (site CGCCCTCCTAA) | 1.24 |
| CGCCGAACATGGACCGGTTTTCCCGGTAATCCGTATTTGCT (site CGCCGAACTAG) | 2.15 |
| CGCCGAACATGGACCGGTTTTCCCGGTAATCCGTATTTGCT (site CGCCGCACTAG) | 0.0174 |
| CGCCGAACATGGACCGGTTTTCCCGGTAATCCGTATTTGCT (site CGCCGGACTAG) | 0.95 |
| CGCCGAACATGGACCGGTTTTCCCGGTAATCCGTATTTGCT (site CGCCGTACTAG) | 0.00823 |

| Sequence | recombinant UMI read abundance (log10) |
| --- | --- |
| CGCCGGGCATGGACCGGTTTTCCCGGTAATCCGTATTTGAC (site CGCCGGGCTGT) | 1.46 |
| CGCCGTACATGGACCGGTTTTCCCGGTAATCCGTATTTGAT (site CGCCGTACTAA) | 0.00486 |
| CGCCGTACATGGACCGGTTTTCCCGGTAATCCGTATTTGAT (site CGCCGTACTAC) | 0.0168 |
| CGCCGTACATGGACCGGTTTTCCCGGTAATCCGTATTTGAT (site CGCCGTACTAG) | 0 |
| CGCCGTACATGGACCGGTTTTCCCGGTAATCCGTATTTGAT (site CGCCGTACTAT) | 1.37 |
| CGCCGTACATGGACCGGTTTTCCCGGTAATCCGTATTTGCC (site CGCCGTACTAG) | 0.256 |
| CGCCGTACATGGACCGGTTTTCCCGGTAATCCGTATTTGCC (site CGCCGTACTCG) | 0.114 |
| CGCCGTACATGGACCGGTTTTCCCGGTAATCCGTATTTGCC (site CGCCGTACTGG) | 1.55 |
| CGCCGTACATGGACCGGTTTTCCCGGTAATCCGTATTTGCC (site CGCCGTACTTG) | 0.384 |
| CGCCGTCCATGGACCGGTTTTCCCGGTAATCCGTATTTGCT (site CGCCGTACTAG) | 0.0123 |
| CGCCGTCCATGGACCGGTTTTCCCGGTAATCCGTATTTGCT (site CGCCGTCCTAG) | 0.666 |
| CGCCGTCCATGGACCGGTTTTCCCGGTAATCCGTATTTGCT (site CGCCGTGCTAG) | 0 |
| CGCCGTCCATGGACCGGTTTTCCCGGTAATCCGTATTTGCT (site CGCCGTTCTAG) | 0.012 |
| CGCCTAGCATGGACCGGTTTTCCCGGTAATCCGTATTTGTC (site TTGAATACTAG) | 0 |
| CGCCTATCATGGACCGGTTTTCCCGGTAATCCGTATTTGGC (site CGCCTATCTGC) | 1.93 |
| CGCCTTACATGGACCGGTTTTCCCGGTAATCCGTATTTGCT (site CGCCATACTAG) | 0.00361 |
| CGCCTTACATGGACCGGTTTTCCCGGTAATCCGTATTTGCT (site CGCCCTACTAG) | 0.675 |
| CGCCTTACATGGACCGGTTTTCCCGGTAATCCGTATTTGCT (site CGCCGTACTAG) | 0 |
| CGCCTTACATGGACCGGTTTTCCCGGTAATCCGTATTTGCT (site CGCCTTACTAG) | 1.57 |
